Assay results taken from the supplement of paper PMC10733146.

Key:
Assay in all cases: viability relative to DMSO control (fraction); higher = less drug effect (more viable cells)
Details in all cases: 48 h
[1] = tested on: primary AML patient cells (S072)
Summary of the method: (§1)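 Using 384-well plates with compounds already plated at five concentrations, one well per concentration, 4 × 10^4 primary mononuclear tumour cells were added per well. Cells were Ficoll-isolated from blood or bone marrow or came from processed lymph node, fresh or cryopreserved. They were kept for 48 h at 37 °C and 5% CO2 in RPMI-1640 supplemented with penicillin/streptomycin, L-glutamine and human serum, and viability was read as CellTiter-Glo luminescence relative to the median of 16 inner DMSO wells.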

[2] = tested on: primary CLL patient cells (S031)
Summary of the method: as §1

[3] = tested on: primary MCL patient cells (S053)
Summary of the method: as §1

[4] = tested on: primary AML patient cells (S085)
Summary of the method: as §1

[5] = tested on: primary CLL patient cells (S043)
Summary of the method: as §1

[6] = tested on: primary ALL patient cells (S048)
Summary of the method: as §1

[7] = tested on: primary BL patient cells (S005)
Summary of the method: as §1

[8] = tested on: primary AML patient cells (S091)
Summary of the method: as §1

[9] = tested on: primary AML patient cells (S079)
Summary of the method: as §1

[10] = tested on: primary AML patient cells (S019)
Summary of the method: as §1

[11] = tested on: primary AML patient cells (S037)
Summary of the method: as §1

[12] = tested on: primary MCL patient cells (S068)
Summary of the method: as §1

[13] = tested on: primary FL patient cells (S022)
Summary of the method: as §1

[14] = tested on: primary AML patient cells (S071)
Summary of the method: as §1

[15] = tested on: primary AML patient cells (S089)
Summary of the method: as §1

[16] = tested on: primary AML patient cells (S017)
Summary of the method: as §1

[17] = tested on: primary AML patient cells (S012)
Summary of the method: as §1

[18] = tested on: primary AML patient cells (S002)
Summary of the method: as §1

[19] = tested on: primary AML patient cells (S025)
Summary of the method: as §1

[20] = tested on: primary AML patient cells (S056)
Summary of the method: as §1

## CC#CC(=O)N1CCC[C@H]1c1nc(-c2ccc(C(=O)Nc3ccccn3)cc2)c2c(N)nccn12 [Acalabrutinib (ACP-196)]
[1]; 0.008 µM
  viability: 0.995
[1]; 0.04 µM
  viability: 0.971
[1]; 0.2 µM
  viability: 0.989
[1]; 1 µM
  viability: 0.941
[1]; 5 µM
  viability: 0.971
[2]; 0.008 µM
  viability: 0.877
[2]; 0.04 µM
  viability: 0.817
[2]; 0.2 µM
  viability: 0.742
[2]; 1 µM
  viability: 0.722
[2]; 5 µM
  viability: 0.713
[3]; 0.008 µM
  viability: 0.711
[3]; 0.04 µM
  viability: 0.636
[3]; 0.2 µM
  viability: 0.656
[3]; 1 µM
  viability: 0.587
[3]; 5 µM
  viability: 0.66
[4]; 0.008 µM
  viability: 1.05
[4]; 0.04 µM
  viability: 1.14
[4]; 0.2 µM
  viability: 1.01
[4]; 1 µM
  viability: 0.989
[4]; 5 µM
  viability: 1.02
[5]; 0.008 µM
  viability: 0.794
[5]; 0.04 µM
  viability: 0.768
[5]; 0.2 µM
  viability: 0.73
[5]; 1 µM
  viability: 0.701
[5]; 5 µM
  viability: 0.72
[6]; 0.008 µM
  viability: 1.05
[6]; 0.04 µM
  viability: 0.955
[6]; 0.2 µM
  viability: 0.975
[6]; 1 µM
  viability: 0.962
[6]; 5 µM
  viability: 1.03
[7]; 0.008 µM
  viability: 1.07
[7]; 0.04 µM
  viability: 1.15
[7]; 0.2 µM
  viability: 1.05
[7]; 1 µM
  viability: 1.17
[7]; 5 µM
  viability: 1.08
[8]; 0.008 µM
  viability: 0.945
[8]; 0.04 µM
  viability: 1.06
[8]; 0.2 µM
  viability: 0.979
[8]; 1 µM
  viability: 1.01
[8]; 5 µM
  viability: 1.07
[9]; 0.008 µM
  viability: 0.948
[9]; 0.04 µM
  viability: 0.906
[9]; 0.2 µM
  viability: 0.859
[9]; 1 µM
  viability: 1.11
[9]; 5 µM
  viability: 0.965
[10]; 0.008 µM
  viability: 1.09
[10]; 0.04 µM
  viability: 1.2
[10]; 0.2 µM
  viability: 1.08
[10]; 1 µM
  viability: 1.12
[10]; 5 µM
  viability: 1.06
[11]; 0.008 µM
  viability: 1.07
[11]; 0.04 µM
  viability: 1.62
[11]; 0.2 µM
  viability: 1.07
[11]; 1 µM
  viability: 1.22
[11]; 5 µM
  viability: 1.05
[12]; 0.008 µM
  viability: 0.878
[12]; 0.04 µM
  viability: 0.805
[12]; 0.2 µM
  viability: 0.788
[12]; 1 µM
  viability: 0.767
[12]; 5 µM
  viability: 0.785
[13]; 0.008 µM
  viability: 1.1
[13]; 0.04 µM
  viability: 1.12
[13]; 0.2 µM
  viability: 1.11
[13]; 1 µM
  viability: 1.09
[13]; 5 µM
  viability: 1.05
[14]; 0.008 µM
  viability: 1.06
[14]; 0.04 µM
  viability: 1.02
[14]; 0.2 µM
  viability: 1.01
[14]; 1 µM
  viability: 1.01
[14]; 5 µM
  viability: 0.994
[15]; 0.008 µM
  viability: 0.975
[15]; 0.04 µM
  viability: 0.996
[15]; 0.2 µM
  viability: 0.91
[15]; 1 µM
  viability: 0.679
[15]; 5 µM
  viability: 0.629
[16]; 0.008 µM
  viability: 1.32
[16]; 0.04 µM
  viability: 1.1
[16]; 0.2 µM
  viability: 1.15
[16]; 1 µM
  viability: 1.36
[16]; 5 µM
  viability: 0.997
[17]; 0.008 µM
  viability: 1.08
[17]; 0.04 µM
  viability: 1.16
[17]; 0.2 µM
  viability: 1.14
[17]; 1 µM
  viability: 1.16
[17]; 5 µM
  viability: 1.21
[18]; 0.008 µM
  viability: 0.98
[18]; 0.04 µM
  viability: 1.15
[18]; 0.2 µM
  viability: 1.03
[18]; 1 µM
  viability: 0.952
[18]; 5 µM
  viability: 1.04
[19]; 0.008 µM
  viability: 1.06
[19]; 0.04 µM
  viability: 1.26
[19]; 0.2 µM
  viability: 1.04
[19]; 1 µM
  viability: 1.05
[19]; 5 µM
  viability: 1.05
[20]; 0.008 µM
  viability: 1.04
[20]; 0.04 µM
  viability: 1.55
[20]; 0.2 µM
  viability: 1.02
[20]; 1 µM
  viability: 0.929
[20]; 5 µM
  viability: 0.766

## O=C(Nc1cccc(C(F)(F)F)c1)Nc1cc(S(=O)(=O)NC2CC2)ccc1-c1ccsc1 [AGI-6780]
[1]; 0.024 µM
  viability: 0.98
[1]; 0.12 µM
  viability: 0.904
[1]; 0.6 µM
  viability: 0.884
[1]; 3 µM
  viability: 0.764
[1]; 15 µM
  viability: 0.769
[2]; 0.024 µM
  viability: 0.679
[2]; 0.12 µM
  viability: 0.703
[2]; 0.6 µM
  viability: 0.727
[2]; 3 µM
  viability: 0.701
[2]; 15 µM
  viability: 0.612
[3]; 0.024 µM
  viability: 0.741
[3]; 0.12 µM
  viability: 0.807
[3]; 0.6 µM
  viability: 0.851
[3]; 3 µM
  viability: 0.788
[3]; 15 µM
  viability: 0.88
[4]; 0.024 µM
  viability: 0.793
[4]; 0.12 µM
  viability: 0.809
[4]; 0.6 µM
  viability: 0.734
[4]; 3 µM
  viability: 0.672
[4]; 15 µM
  viability: 0.691
[5]; 0.024 µM
  viability: 0.927
[5]; 0.12 µM
  viability: 1.05
[5]; 0.6 µM
  viability: 0.988
[5]; 3 µM
  viability: 0.905
[5]; 15 µM
  viability: 0.935
[6]; 0.024 µM
  viability: 0.7
[6]; 0.12 µM
  viability: 0.636
[6]; 0.6 µM
  viability: 0.599
[6]; 3 µM
  viability: 0.622
[6]; 15 µM
  viability: 0.61
[7]; 0.024 µM
  viability: 0.818
[7]; 0.12 µM
  viability: 0.915
[7]; 0.6 µM
  viability: 0.932
[7]; 3 µM
  viability: 0.778
[7]; 15 µM
  viability: 0.886
[8]; 0.024 µM
  viability: 1.02
[8]; 0.12 µM
  viability: 1.05
[8]; 0.6 µM
  viability: 0.975
[8]; 3 µM
  viability: 0.989
[8]; 15 µM
  viability: 0.924
[9]; 0.024 µM
  viability: 0.935
[9]; 0.12 µM
  viability: 0.943
[9]; 0.6 µM
  viability: 0.925
[9]; 3 µM
  viability: 0.887
[9]; 15 µM
  viability: 0.802
[10]; 0.024 µM
  viability: 1.17
[10]; 0.12 µM
  viability: 1.26
[10]; 0.6 µM
  viability: 1.27
[10]; 3 µM
  viability: 1.13
[10]; 15 µM
  viability: 1.18
[11]; 0.024 µM
  viability: 0.971
[11]; 0.12 µM
  viability: 1.02
[11]; 0.6 µM
  viability: 0.955
[11]; 3 µM
  viability: 0.877
[11]; 15 µM
  viability: 0.889
[12]; 0.024 µM
  viability: 0.751
[12]; 0.12 µM
  viability: 0.809
[12]; 0.6 µM
  viability: 0.786
[12]; 3 µM
  viability: 0.722
[12]; 15 µM
  viability: 0.798
[13]; 0.024 µM
  viability: 0.826
[13]; 0.12 µM
  viability: 0.782
[13]; 0.6 µM
  viability: 0.821
[13]; 3 µM
  viability: 0.835
[13]; 15 µM
  viability: 0.775
[14]; 0.024 µM
  viability: 0.803
[14]; 0.12 µM
  viability: 0.828
[14]; 0.6 µM
  viability: 0.826
[14]; 3 µM
  viability: 0.78
[14]; 15 µM
  viability: 0.607
[15]; 0.024 µM
  viability: 0.717
[15]; 0.12 µM
  viability: 0.925
[15]; 0.6 µM
  viability: 0.822
[15]; 3 µM
  viability: 0.84
[15]; 15 µM
  viability: 0.637
[16]; 0.024 µM
  viability: 0.881
[16]; 0.12 µM
  viability: 0.938
[16]; 0.6 µM
  viability: 0.919
[16]; 3 µM
  viability: 0.908
[16]; 15 µM
  viability: 0.982
[17]; 0.024 µM
  viability: 1.03
[17]; 0.12 µM
  viability: 1.01
[17]; 0.6 µM
  viability: 1
[17]; 3 µM
  viability: 0.941
[17]; 15 µM
  viability: 0.868
[18]; 0.024 µM
  viability: 0.785
[18]; 0.12 µM
  viability: 0.822
[18]; 0.6 µM
  viability: 0.816
[18]; 3 µM
  viability: 0.798
[18]; 15 µM
  viability: 0.689
[19]; 0.024 µM
  viability: 0.949
[19]; 0.12 µM
  viability: 1.06
[19]; 0.6 µM
  viability: 0.978
[19]; 3 µM
  viability: 0.905
[19]; 15 µM
  viability: 0.839
[20]; 0.024 µM
  viability: 1.03
[20]; 0.12 µM
  viability: 0.821
[20]; 0.6 µM
  viability: 0.834
[20]; 3 µM
  viability: 0.783
[20]; 15 µM
  viability: 0.7
